Structures can show the parent of a compound that is named as a salt.
Key:
[1] = in vivo; details: mouse, oral, ddY-strain male mice, fasted 24 hours, deaths during seven days, Weil method, read-out: Acute toxicity LD50
Description: ddY-strain male mice (body weight 18 to 22 g; five per group) were caused to fast 24 hours. Then, each of the test compounds was administered orally, and acute toxicity values (LD50) were determined.
Each of the compounds was dissolved or suspended in a 2% tartaric acid solution containing 20% of dimethylacetamide, and orally administered to the animals. From the number of animals which died during seven days, the LD50 values were calculated by using the Weil method.

[2] = test system: vertebral blood flow; test: Activity of increasing cerebral blood flow (vertebral blood flow), intravenous administration in anesthetized dogs; format: in vivo; details: Canis lupus familiaris; 0.03 to 0.3 mg/kg intravenous, anesthetized mongrel dogs; calculated from the regression line; read-out: VBF-ED50 (dose which increased the cerebral blood flow by 50%)
[3] = test system: vertebral blood flow; test: as above; format: in vivo; details: 0.3 mg/kg, injected into femoral vein, anesthetized mongrel dogs
Description: The activity of increasing cerebral blood flow was measured by using the amount of vertebral blood flow as an index. Mongrel dogs of either sex (body weight 11 to 14 kg; four per group) were anesthetized with sodium pentobarbital (30 mg/kg, by intravenous injection), and the right vertebral artery was isolated from the surrounding tissues. A flow probe was attached to it and led to an electromagnetic flow meter (MFV-2100 made by Nihon Kohden Co., Ltd.). The amount of blood flow was periodically measured [see Meth and Find Exptl Clin Pharmacol, 3 (6), 397 (1981)]. Each of the test compounds was dissolved in a 2% tartaric acid solution containing 20% dimethylacetamide, and injected into the right femoral vein.
Furthermore, each of the test compounds was administered in a dose of 0.3 mg/kg, and increases (%) in vertebral blood flow were determined 1, 5, 10 and 20 minutes after the administration.

[4] = test system: vertebral blood flow; test: Activity to increase cerebral blood flow (vertebral blood flow), intraduodenal administration in dogs; format: in vivo; details: 1 mg/kg intraduodenal, mongrel dogs
Description: The activity of compound A of the invention to increase cerebral blood flow was examined by intraduodenal administration.
Compound A was dissolved in a 2% tartaric acid solution containing 20% dimethylacetamide, and administered intraduodenally to mongrel dogs of either sex (body weight 11-18 kg, five per group) in a dose of 1 mg/kg.
At 10, 30, 60, 120, 180 and 240 minutes after the administration, the increase (%) of vertebral blood flow was measured in the same way as in Test Example 1.

[5] = 10 minutes after administration
[6] = 20 minutes after administration

SMILES	LD50 at 168 h [1] [mg/kg]	ED50 [2] [mg/kg]	Increase (%) in vertebral blood flow (mean ± standard error) ([3]; 1 minute after administration) [%]	Increase (%) in vertebral blood flow (mean ± standard error) ([3]; 5 minutes after administration) [%]	Increase (%) in vertebral blood flow (mean ± standard error) [3, 5] [%]	Increase (%) in vertebral blood flow (mean ± standard error) [3, 6] [%]	Increase (%) of vertebral blood flow (mean ± standard error) [4, 5] [%]	Increase (%) of vertebral blood flow (mean ± standard error) ([4]; 30 minutes after administration) [%]	Increase (%) of vertebral blood flow (mean ± standard error) ([4]; 60 minutes after administration) [%]	Increase (%) of vertebral blood flow (mean ± standard error) ([4]; 120 minutes after administration) [%]	Increase (%) of vertebral blood flow (mean ± standard error) ([4]; 180 minutes after administration) [%]	Increase (%) of vertebral blood flow (mean ± standard error) ([4]; 240 minutes after administration) [%]
COc1ccc(C=CCN2CCN(C(c3ccccc3)c3ccccc3)CC2)c(OC)c1OC.Cl.Cl [B, 1-Benzhydryl-4-(2,3,4-trimethoxycinnamyl) piperazine dihydrochloride]	841	0.12	76 ± 14	58 ± 12	41 ± 7	26 ± 4	–	–	–	–	–	–
COc1ccc(C=CCN2CCN(C(c3ccc(F)cc3)c3ccc(F)cc3)CC2)c(OC)c1.O=C(O)/C=C/C(=O)O [C, 1-[Bis(4-fluorophenyl)methyl]-4-(2,4-dimethoxycinnamyl)piperazine fumarate]	102	0.08	83 ± 12	92 ± 10	71 ± 7	50 ± 7	–	–	–	–	–	–
C(=Cc1ccccc1)CN1CCN(C(c2ccccc2)c2ccccc2)CC1 [Cinnarizine, reference compound]	–	–	40 ± 10	5 ± 4	2 ± 2	2 ± 4	–	–	–	–	–	–
COc1ccc(C=CCN2CCN(C(c3ccc(F)cc3)c3ccc(F)cc3)CC2)c(OC)c1OC.Cl.Cl [Compound A, 1-[Bis(4-fluorophenyl)methyl]-4-(2,3,4-trimethoxycinnamyl)piperazine dihydrochloride]	185	0.06	107 ± 17	137 ± 39	134 ± 40	120 ± 38	6.2 ± 1.8	51.0 ± 18.6	149.3 ± 48.0	150.9 ± 38.2	98.8 ± 24.2	55.1 ± 17.2
COc1ccc(C=CCN2CCN(C(c3ccccc3)c3ccccc3)CC2)c(OC)c1.O=C(O)/C=C/C(=O)O [D, 1-Benzhydryl-4-(2,4-dimethoxycinnamyl) piperazine fumarate]	773	0.18	66 ± 11	51 ± 10	27 ± 7	18 ± 6	–	–	–	–	–	–
Fc1ccc(C(c2ccc(F)cc2)N2CCN(CC=Cc3ccccc3)CC2)cc1 [Flunarizine dihydrochloride, reference compound]	–	> 0.3	53 ± 20	20 ± 12	11 ± 7	10 ± 6	–	–	–	–	–	–

From patent US4703048A, “Novel 1-benzhydryl-4-cinnamylpiperazine derivatives, and pharmaceutical compositions comprising said compounds as active ingredient for treating a cerebrovascular disease” (Kanebo Ltd., priority 1985, dated 1987)
